# Reference: PubChem BioAssay AID1918958 (Molecular Pharmacology Branch, DTP, NCI, 2023)
# System: NCI-H196 complex spheroid viability
# Test: Anticancer human tumor NCI-H196 cell line growth inhibition [LSD1];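 note: spheroids exposed to agents for 7 days before readout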;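 for viability, T/C: 100% = DMSO vehicle control viability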
# Details: for IC50: curve of first compound; for viability, T/C: stronger effect = lower value
# How it was run: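 Multicellular complex spheroids of tumor cells with human endothelial cells (HUVEC) and mesenchymal stem cells; the LSD1 inhibitor iadademstat was combined with standard-of-care or investigational agents. Top concentration at or near clinical Cmax, half-log dilutions; final DMSO ≤0.25%.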
# [1] = second compound 0.1 µM, first compound 0.0316 µM
# [2] = second compound 0.1 µM, first compound 0.1 µM
# [3] = second compound 0.1 µM, first compound 0.316 µM
# [4] = second compound 0.1 µM, first compound 1 µM
# [5] = second compound 0.1 µM, first compound 3.16 µM
# [6] = second compound 0.1 µM, first compound 10 µM
# [7] = second compound 0.316 µM, first compound 0.0316 µM
# [8] = second compound 0.316 µM, first compound 0.1 µM
# [9] = second compound 0.316 µM, first compound 0.316 µM
# [10] = second compound 0.316 µM, first compound 1 µM
# [11] = second compound 0.316 µM, first compound 3.16 µM
# [12] = second compound 0.316 µM, first compound 10 µM
# [13] = second compound 1 µM, first compound 0.0316 µM
# [14] = second compound 1 µM, first compound 0.1 µM
# [15] = second compound 1 µM, first compound 0.316 µM
# [16] = second compound 1 µM, first compound 1 µM
# [17] = second compound 1 µM, first compound 3.16 µM
# [18] = second compound 1 µM, first compound 10 µM
# [19] = second compound 3.16 µM, first compound 0.0316 µM
# [20] = second compound 3.16 µM, first compound 0.1 µM
# [21] = second compound 3.16 µM, first compound 0.316 µM
# [22] = second compound 3.16 µM, first compound 1 µM
# [23] = second compound 3.16 µM, first compound 3.16 µM
# [24] = second compound 3.16 µM, first compound 10 µM
# [25] = second compound 10 µM, first compound 0.0316 µM
# [26] = second compound 10 µM, first compound 0.1 µM
# [27] = second compound 10 µM, first compound 0.316 µM
# [28] = second compound 10 µM, first compound 1 µM
# [29] = second compound 10 µM, first compound 3.16 µM
# [30] = second compound 10 µM, first compound 10 µM
SMILES,IC50 (second compound 0.1 µM) [µM],IC50 (second compound 0.316 µM) [µM],IC50 (second compound 1 µM) [µM],IC50 (second compound 3.16 µM) [µM],IC50 (second compound 10 µM) [µM],"viability, T/C [1] [%]","viability, T/C [2] [%]","viability, T/C [3] [%]","viability, T/C [4] [%]","viability, T/C [5] [%]","viability, T/C [6] [%]","viability, T/C [7] [%]","viability, T/C [8] [%]","viability, T/C [9] [%]","viability, T/C [10] [%]","viability, T/C [11] [%]","viability, T/C [12] [%]","viability, T/C [13] [%]","viability, T/C [14] [%]","viability, T/C [15] [%]",also measured
CC1(C)CCC(CN2CCN(c3ccc(C(=O)NS(=O)(=O)c4ccc(NCC5CCOCC5)c([N+](=O)[O-])c4)c(Oc4cnc5[nH]ccc5c4)c3)CC2)=C(c2ccc(Cl)cc2)C1 + NC1CCC(NC2CC2c2ccccc2)CC1,5.15,5.19,5.88,5.6,6.02,98.8,104,96.8,97.8,76,14.6,107,106,98,98,78.3,13.2,101,103,101,"viability, T/C [16]: 106%; viability, T/C [17]: 89.1%; viability, T/C [18]: 16.5%; viability, T/C [19]: 109%; viability, T/C [20]: 104%; viability, T/C [21]: 95.4%; viability, T/C [22]: 102%; viability, T/C [23]: 82.8%; viability, T/C [24]: 16.6%; viability, T/C [25]: 104%; viability, T/C [26]: 101%; viability, T/C [27]: 99.2%; viability, T/C [28]: 103%; viability, T/C [29]: 86.4%; viability, T/C [30]: 21%"
CC1COCCN1c1cc(C2(S(C)(=N)=O)CC2)nc(-c2ccnc3[nH]ccc23)n1 (stereo not given) + NC1CCC(NC2CC2c2ccccc2)CC1,> 10,> 10,> 10,> 10,> 10,95.7,100,99,87.5,89,67.4,101,99.5,110,89.5,88.3,70.8,101,96.4,95.5,"viability, T/C [16]: 85.8%; viability, T/C [17]: 79.5%; viability, T/C [18]: 72.2%; viability, T/C [19]: 97.4%; viability, T/C [20]: 100%; viability, T/C [21]: 93.7%; viability, T/C [22]: 85.5%; viability, T/C [23]: 79.5%; viability, T/C [24]: 70.2%; viability, T/C [25]: 96.9%; viability, T/C [26]: 108%; viability, T/C [27]: 100%; viability, T/C [28]: 98%; viability, T/C [29]: 77.3%; viability, T/C [30]: 68.2%"
